Results from US9629822B2, “Flavonoid based antiviral targets” (UNIVERSITY OF CENTRAL FLORIDA RESEARCH FOUNDATION, INC., priority 2012, dated 2017).
“Also recorded” adds a separate entry of the source. Where two headings read alike, the source gives them in different places.

Columns and labels:
HIV-1 BaL = assay: Anti-HIV assay (luciferase, HIV-1 BaL infection); format: cell-based
Description: Assays were performed below in accordance with the procedures set forth in The Journal of Immunology, 2006, 176, pp. 6900-905; AIDS Research and Human Retroviruses, 2004, 20:11, pp. 1157-1665.^32,33 Cells were treated with 2 ng/mL p24 of HIV-1 BaL administered; MOI approx 0.02 (see refs 32, 33). Cells were treated with 2 ng/mL p24 of HIV-1 BaL administered; MOI approx 0.02 (see refs 32, 33).

[1] = test system: mock transfected 293T HEK cells; assay: PathDetect Elk1 luminescence in mock transfected (empty pcDNA3 vector) 293T HEK cells, off-target effect; format: cell-based, human; conditions: for activation at 10 µM: Homo sapiens, read-out: Effect(%) on mock cells with each drug at 10 μM
Description: As a control, the empty pcDNA3 plasmid vector and the components of PathDetect system were also used for mock transfection of 293T HEK cells. Controls containing 1% DMSO were run in parallel. The relative luminescence results found with mock transfected 293T HEK cells treated with 10 μM drug and the untreated 1% DMSO control were compared via the following Equation 1. % Effect on mock cells=(100%×(mock cell luminescence/DMSO control luminescence))−100% Equation (1)
This equation was derived in order to assess the net effect each compound had on non-US28 containing HEK cells transfected via the same protocol. These control experiments were critical as they provided a method to address off target effects such as compound toxicity, which could give rise to false positives in the PathDetect assay.
Compounds, which had no off-target effects, gave nearly identical luminescence values in both the mock cells and the 1% DMSO control (i.e., a mock cell luminescence/DMSO control luminescence ratio of 1) and a net effect of 0% via Equation 1 (e.g., 9j: 0% in Table 1). In contrast, compounds that were stimulatory to the treated HEK cells gave higher mock cell luminescence than the DMSO control, a ratio >1, and a net positive value in Equation 1 for the % effect on mock cells (e.g., 8f: 290%). On the other hand, compounds that were intrinsically toxic gave lower luminescence in the treated mock cells than the DMSO control, a ratio below 1, and a net negative value for the % effect on mock cells (e.g., 8d: ˜42%).
(§1) The efficacy of each compound on the US28 receptor was investigated in luciferase based reporter gene assay PathDetect trans Elk1 (Agilent, Stratagene)^23 as described previously.^13 Briefly, the human embryonic kidney (HEK) 293T cells were transiently-transfected with 0.1 μg Elk1, 5 μg Luc, and 5 μg of US28 vector or empty pcDNA3 vector (mock cells). Five hours after transfection, the cells were washed with DMEM containing 1% FBS, harvested, seeded in a white half-area 96-well plate (20,000 cells/well) and incubated with the indicated concentrations of test compounds. The incubation buffer consisted of DMEM, 1% FBS, 2 mM L-glutamine, 1% penicillin-streptomycin and 1% DMSO. The cells were incubated at 37° C. in the humid atmosphere with 5% CO2 for an additional 20-24 hours. The luciferase substrate BrightGlo (Promega) was used according to the manufacturer's instruction. The luminescence intensity was acquired using microplate reader Victor3V (Perkin-Elmer). The basal luminescence of mock transfected cells was approximately 500 RLU and the basal luminescence of US28-transfected cells was 4-5-fold higher (2000-2500 RLU). As the inhibitors gave differential responses in terms of their ability to reduce US 28 mediated signaling, their relative EC50 values were determined by dosing the US-28 transfected HEK cells with increasing concentrations of each compound. In this case, the EC50 value is the concentration of the compound needed to provoke a response halfway between the compound's maximal response (change in luminescence) and the no-compound control in the same US-28 transfected cell line. A plot of relative luminescence versus log of the compound concentration provided a dose-response curve from which the % efficacy was derived via non-linear regression methods using the algorithms in PRISM 5.0 (GraphPad Software, San Diego, Calif.).

CHO cells = assay: CHO cell toxicity, MTS assay, 48 h; format: cell-based, Chinese hamster; conditions: 37° C., MTS reagent; for IC50: Cricetulus griseus, CHO, read-out: CHO 48 h IC50 value
Description: In each case, the chalcone system 8 was more toxic than the corresponding ring-closed system, 9.
The CHO assay was conducted to assess the general toxicity of each flavonoid drug. Briefly, cell growth was assayed in sterile 96-well microtiter plates (Costar 3599, Corning, N.Y., USA) in the presence of each drug. Experiments were conducted in triplicate. CHO cells were plated at 10,000 cells/mL. Drug solutions were prepared in 100% DMSO and dosed so that the final DMSO concentration was <1%. For example, 1 μL of drug solution was added to the CHO cells plated in each well in 100 μL of media. Drug additions occurred after an initial overnight incubation of CHO cells in each well. After drug was added, the cells were incubated in 5% CO2 for 48 h at 37° C. The MTS reagent (Promega Cell Titer 96 Aqueous non-radioactive cell proliferation reagent) was added (20 μL) and the CHO cells were incubated for an additional 4h and then absorbance at 490 nm was measured on a BioTek Synergy MX plate reader. […] IC50 values were determined from the corresponding plot of relative absorbance at 490 nm vs drug concentration.

US28 receptor = target: T1, US28 receptor (Human cytomegalovirus, UniProt P69332); assay: PathDetect trans Elk1 luciferase reporter gene assay in US28-transfected 293T HEK cells; format: cell-based, Human Cytomegalovirus (HCMV); conditions: for type of activity on the US28 receptor (agonist / inverse agonist / none), in words: Elk1 reporter, US28-transfected HEK cells; for Efficacy(%): maximum intrinsic activity from dose-response curve; for Efficacy(%) / Emax: negative = inverse agonism; for Emax: read-out: Efficacy(%), maximum intrinsic activity from dose-response curve
T1 construct: expressed in transfected cells; host or cells: HEK 293T cells, transiently transfected
T1 sequence (P69332 whole entry): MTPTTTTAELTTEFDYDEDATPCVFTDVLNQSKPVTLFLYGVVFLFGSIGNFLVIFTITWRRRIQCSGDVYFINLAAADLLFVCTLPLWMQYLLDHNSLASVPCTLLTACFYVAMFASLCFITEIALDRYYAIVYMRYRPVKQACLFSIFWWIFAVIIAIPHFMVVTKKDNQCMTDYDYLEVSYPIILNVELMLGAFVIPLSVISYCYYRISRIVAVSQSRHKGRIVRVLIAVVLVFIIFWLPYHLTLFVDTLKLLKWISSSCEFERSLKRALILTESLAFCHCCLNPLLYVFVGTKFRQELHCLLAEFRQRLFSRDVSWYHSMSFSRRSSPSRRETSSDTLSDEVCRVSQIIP
Description: Having generated a homologous series of chalcones and flavones, their ability to interact with the US28 receptor in human embryonic kidney (HEK) cells was investigated using an Elk-1 gene reporter assay (FIG. 2). HEK cells were transfected with either an empty vector (i.e., mock cells) or with a vector carrying US 28. These matched HEK cells provided a means to evaluate off-target effects as well as innate drug toxicity. As many of the flavonoid drugs were not water-soluble, all drug stock solutions were made in 100% dimethylsulfoxide (DMSO). The final DMSO concentration for each cell-based experiment, however, was 1% DMSO. To account for the presence of DMSO, 1% DMSO controls were run in parallel. […] values of the homologous series were also determined in Chinese hamster ovary (CHO) cells in order to assess the relative toxicities of each member of the series in a different cell line (see Table 1).
Interaction with the US28 receptor was measured by a decrease in luminescence using a firefly (Photinus pyralis) luciferase-based PathDetect Elk1 gene reporter assay (FIG. 2).^23,24 This assay assessed the modulation of US28-mediated activation of mitogen-activated protein kinase (MAPK) signaling pathways (results are shown in Table 1). […] Such compounds which reduce MAPK signaling will have direct utility in the treatment of proliferative disorders including but not limited cancer.
After transfection the US28 is expressed and activates MAPK. The MAPK phosphorylates the activator domain of the GAL4dbd/Elk1 fusion protein, and causes its dimerization. The dimer then binds to the GAL4 UAS region of the reporter gene and allows for luciferase transcription. The luciferase mRNA is then translated and the luciferase protein is detected via luminescence by the use of the Bright-Glo reagent.
as §1

[2] = TZMbI assay for cell safety (cell viability and growth, CytoTox Glo); conditions: human, TZMbI cells, read-out: % decrease in viability compared to 0.1% DMSO vehicle based on viable cell luminescence
Description: Assays were performed below in accordance with the procedures set forth in The Journal of Immunology, 2006, 176, pp. 6900-905; AIDS Research and Human Retroviruses, 2004, 20:11, pp. 1157-1665.^32,33 TZMbI assays for cell safety were performed to identify potential anti-viral compounds. TZMbI assays for cell safety were performed to identify potential anti-viral compounds per the methods.

[3] = 10 μM, Experiment 1B, 2 ng/mL p24 HIV-1 BaL
[4] = Human immunodeficiency virus 1, BAL, 10 μM, Experiment 1B, 2 ng/mL p24 HIV-1 BaL
[5] = 10 μM vs 1% DMSO control, Equation 1
[6] = pEC50 ± SEM, 293T HEK cells transiently expressing US28, Elk1 reporter
[7] = EC50 (μM), 293T HEK cells transiently expressing US28, Elk1 reporter, NE = no effect when tested at 10 μM of compound

COc1ccccc1/C=C/C(=O)c1ccccc1O [Compound 8a, (E)-1-(2-Hydroxyphenyl)-3-(2-methoxyphenyl)prop-2-en-1-one]
RLU (relative luciferase units) (HIV-1 BaL; [3]): 1218.5 RLU | inhibition at 10 µM (HIV-1 BaL; [4]): -28.8% | activation at 10 µM [1, 5]: 8% | IC50 (CHO cells): 25.5 ± 2.7 µM | type of activity on the US28 receptor (agonist / inverse agonist / none), in words (US28 receptor): agonism; also recorded: agonist activity | Efficacy(%) (US28 receptor): 67% | EC50 (US28 receptor; [6]): 1.45 µM | Emax (US28 receptor): 67% | cytotoxicity at 10 μM ([2]; Experiment 1A): 18.7%

COc1ccc(Br)cc1/C=C/C(=O)c1ccccc1O [Compound 8b, (E)-3-(5-Bromo-2-methoxyphenyl)-1-(2-hydroxyphenyl)prop-2-en-1-one]
RLU (relative luciferase units) (HIV-1 BaL; [3]): 202.3 RLU | inhibition at 10 µM (HIV-1 BaL; [4]): 78.6% | IC50 (CHO cells): 8.7 ± 0.3 µM | EC50 (US28 receptor; [7]): 7.8 µM | Efficacy(%) (US28 receptor): ~44% | Emax (US28 receptor): ~44% | cytotoxicity at 10 μM ([2]; Experiment 1A): 64.2%

CCOc1ccc(Br)cc1/C=C/C(=O)c1ccccc1O [Compound 8c, (E)-3-(5-bromo-2-ethoxyphenyl)-1-(2-hydroxyphenyl)prop-2-en-1-one]
RLU (relative luciferase units) (HIV-1 BaL; [3]): 112.3 RLU | inhibition at 10 µM (HIV-1 BaL; [4]): 88.1% | activation at 10 µM [1, 5]: -3% | IC50 (CHO cells): 7.2 ± 0.5 µM | EC50 (US28 receptor; [7]): 5 µM | Emax (US28 receptor): ~88% | cytotoxicity at 10 μM ([2]; Experiment 1A): 53.3%

COc1ccccc1/C=C/C(=O)c1c(O)cccc1OCc1ccccc1 [Compound 8k, (E)-1-(2-(Benzyloxy)-6-hydroxyphenyl)-3-(2-methoxyphenyl)prop-2-en-1-one]
toxicity at 10 μM in HEK cells, in words ([1]; 10 μM): very toxic | Effect(%) on mock cells with each drug at 10 μM [1, 5]: Toxic | EC50 (μM) (US28 receptor; 293T HEK cells transiently expressing US28, Elk1 reporter, NE = no effect when tested at 10 μM of compound): Toxic

COc1ccccc1-c1cc(=O)c2c(OCc3ccccc3)cccc2o1 [Compound 11a, 5-(Benzyloxy)-2-(2-methoxyphenyl)-4H-chromen-4-one]
IC50 (CHO cells): 17.5 ± 1.9 µM | EC50 (US28 receptor; [7]): 7.3 µM

COc1ccc(Br)cc1-c1cc(=O)c2c(OCc3ccccc3)cccc2o1 [Compound 11b, 5-(Benzyloxy)-2-(5-bromo-2-methoxyphenyl)-4H-chromen-4-one]
RLU (relative luciferase units) (HIV-1 BaL; 5 μM, Experiment 2B): 24.27 RLU | RLU (relative luciferase units) (HIV-1 BaL; [3]): 781.6 RLU | RLU (relative luciferase units) (HIV-1 BaL; 10 μM, Experiment 2B): 34.09 RLU | RLU (relative luciferase units) (HIV-1 BaL; 20 μM, Experiment 2B): 40.47 RLU | RLU (relative luciferase units) (HIV-1 BaL; 40 μM, Experiment 2B): 49.22 RLU | RLU (relative luciferase units) (HIV-1 BaL; 80 μM, Experiment 2B): 62.68 RLU | inhibition at 5 µM (HIV-1 BaL; Human immunodeficiency virus 1, BAL, 5 μM, Experiment 2B): -6.17% | inhibition at 10 µM (HIV-1 BaL; [4]): 16.5% | inhibition at 10 µM (HIV-1 BaL; Human immunodeficiency virus 1, BAL, 10 μM, Experiment 2B): -15.1% | inhibition at 20 µM (HIV-1 BaL; Human immunodeficiency virus 1, BAL, 20 μM, Experiment 2B): -18.1% | inhibition at 40 µM (HIV-1 BaL; Human immunodeficiency virus 1, BAL, 40 μM, Experiment 2B): -29.2% | inhibition at 80 µM (HIV-1 BaL; Human immunodeficiency virus 1, BAL, 80 μM, Experiment 2B): -1.51% | CHO 48 h IC50 value (μM) (CHO cells): high CHO IC50 value; also recorded: essentially non-toxic; also recorded: not toxic | IC50 (CHO cells): 96.6 µM | type of activity on the US28 receptor (agonist / inverse agonist / none), in words (US28 receptor): strong inverse agonism activity; also recorded: full inverse agonist | Efficacy(%) (US28 receptor): −89% | EC50 (US28 receptor; [6]): 3.47 µM | Emax (US28 receptor): -89% | cytotoxicity at 5 μM ([2]; 5 μM, Experiment 2A): -6.17% | cytotoxicity at 10 μM ([2]; Experiment 1A): 6.4% | cytotoxicity at 10 μM ([2]; Experiment 2A): -5.05% | cytotoxicity at 20 μM ([2]; 20 μM, Experiment 2A): -18.1% | cytotoxicity at 40 μM ([2]; 40 μM, Experiment 2A): -29.2% | cytotoxicity at 80 μM ([2]; 80 μM, Experiment 2A): -1.51%

CC[C@H](C)[C@@H]1NC(=O)CNC(=O)[C@H](CCCCN)NC(=O)CNC(=O)[C@@H]2CSSC[C@H](NC1=O)C(=O)N[C@@H](CCCNC(=N)N)C(=O)N[C@H]1CSSC[C@H](NC(=O)[C@H](CCCNC(=N)N)NC(=O)[C@@H]3CSSC[C@H](NC(=O)[C@H]([C@@H](C)CC)NC1=O)C(=O)NCC(=O)N[C@@H](CCCNC(=N)N)C(=O)NCC(=O)N[C@@H]([C@@H](C)CC)C(=O)N3)C(=O)N[C@@H]([C@@H](C)CC)C(=O)N2 [RC-101, reference compound]
Mean % Inhibition of Infection (HIV-1 BaL; 10 μM, Experiment 2B): 99.38% | RLU (relative luciferase units) (HIV-1 BaL; 10 μM, Experiment 2B): 1.67 RLU | cytotoxicity at 10 μM ([2]; Experiment 2A): -1.43%
